The target in one assay is Cathepsin B (Homo sapiens, UniProt P07858). The experiment in a line: Inhibition of Cathepsin B (unknown origin) assessed as inhibition of AFC release using sequence RR labelled with AFC as substrate by fluorescence based analysis.
The next assay concerns the target Cathepsin S (Homo sapiens, UniProt P25774). The experiment in a line: Inhibition of Cathepsin S (unknown origin) assessed as inhibition of AFC release using sequence VVR labelled with AFC as substrate by fluorescence based analysis.
For the next assay, the target named is T1, Cathepsin K (Homo sapiens, UniProt P43235).
T1 sequence (P43235 whole entry): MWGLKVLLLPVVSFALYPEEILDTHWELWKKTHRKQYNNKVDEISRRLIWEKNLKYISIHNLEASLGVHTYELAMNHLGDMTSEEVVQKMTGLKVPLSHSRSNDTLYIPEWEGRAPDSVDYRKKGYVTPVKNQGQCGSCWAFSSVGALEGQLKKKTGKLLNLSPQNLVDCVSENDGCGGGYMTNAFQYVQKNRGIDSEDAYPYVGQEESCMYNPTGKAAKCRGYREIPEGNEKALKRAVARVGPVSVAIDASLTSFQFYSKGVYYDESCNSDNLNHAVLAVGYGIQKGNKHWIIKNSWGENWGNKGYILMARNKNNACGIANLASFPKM
The experiment in a line: Inhibition of Cathepsin K (unknown origin) assessed as inhibition of AFC release using sequence LR labelled with AFC as substrate by fluorescence based analysis.

Assay [1] addresses T2, Cathepsin K (Homo sapiens) (UniProt P43235).
T2 sequence (whole entry): T1 sequence (P43235 whole entry)
As to the kind of experiment: Inhibition of Cathepsin K (unknown origin) assessed as inhibition of AFC release at 1 uM using sequence LR labelled with AFC as substrate by fluorescence based analysis.

Assay [2] addresses T2, Cathepsin K (Homo sapiens). The experiment in a line: Inhibition of Cathepsin K (unknown origin) assessed as inhibition of AFC release at 10 uM using sequence LR labelled with AFC as substrate by fluorescence based analysis.
The target in assay [3] is Cathepsin (B and K) (Homo sapiens) (UniProt P43235+P07858). As to the kind of experiment: Selectivity index, ratio of IC50 for Cathepsin B (unknown origin) to IC50 for Cathepsin K (unknown origin) by fluorescence based analysis. Type of assay: protein assay.
Assay [4] has as its target Cathepsin (S and K) (Homo sapiens) (UniProt P25774+P43235). As to the kind of experiment: Selectivity index, ratio of IC50 for Cathepsin S (unknown origin) to IC50 for Cathepsin K (unknown origin) by fluorescence based analysis. Type of assay: protein assay.
In assay [5] the target is T2, Cathepsin K (Homo sapiens). As to the kind of experiment: Reversible inhibition of Cathepsin K (unknown origin) assessed as inhibition of AFC release using sequence LR labelled with AFC as substrate preincubated with enzyme for 10 to 60 mins followed by substrate addition by fluorescence based analysis.

Structures are written as SMILES. Activity calls are given as the source filed them. The rule behind the calls is not given here.

By IC50 is commonly meant the point on the concentration scale where inhibition reaches its midpoint. Usually inhibition stands for the change of the read-out against control, counted positive when it falls.

Sequence of Cathepsin S (P25774 whole entry): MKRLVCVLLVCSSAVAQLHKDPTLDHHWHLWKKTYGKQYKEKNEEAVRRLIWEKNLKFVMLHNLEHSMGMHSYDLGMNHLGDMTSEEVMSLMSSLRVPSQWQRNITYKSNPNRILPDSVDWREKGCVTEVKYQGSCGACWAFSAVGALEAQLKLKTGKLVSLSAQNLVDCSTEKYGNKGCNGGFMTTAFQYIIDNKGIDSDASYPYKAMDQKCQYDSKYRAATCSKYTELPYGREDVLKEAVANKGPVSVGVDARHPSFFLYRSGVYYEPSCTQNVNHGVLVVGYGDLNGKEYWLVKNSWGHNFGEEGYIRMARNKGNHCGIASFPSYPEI
Sequence of Cathepsin (S and K) (Homo sapiens) (P25774 whole entry, looked up, one chain of several): as the sequence (P25774 whole entry) above

As to `CC(C)(C)CN(Cc1ccc(-c2ccccc2)cc1)c1nccc(C#N)n1`, the IC50 is more than 500000 nM on Cathepsin B, more than 500000 nM on Cathepsin S and 235 nM at Cathepsin K. The inhibition in assay [1] is 77.5%; in assay [2], 83.3%.

For the compound `CC(C)(C)CN(Cc1ccc(Cl)cc1)c1nccc(C#N)n1`, the inhibition in assay [1] was determined as 61.3%; in assay [2], 88.3%.

Regarding `CC(C)(C)CN(Cc1cc(Br)cs1)c1nccc(C#N)n1`, the inhibition in assay [1] stood at 43.9%; in assay [2], 75.8%.

As for `CC(C)(C)CN(Cc1ccc(Br)cc1)c1nccc(C#N)n1`, the IC50 on Cathepsin K worked out at 974 nM. For the same compound, the inhibition in assay [1] worked out at 79.8%; in assay [2], 91.3%.

`CC(C)(C)CN(Cc1ccc(F)cc1)c1nccc(C#N)n1`: the inhibition in assay [1] was 56.2%; in assay [2] it was 90.6%.

In the case of `CC(C)(C)CN(Cc1ccc2ccccc2c1)c1nccc(C#N)n1`, the values for the IC50 on Cathepsin B, at Cathepsin S and at Cathepsin K were more than 500000 nM, more than 500000 nM and 356 nM, respectively. Further, the inhibition in assay [1] turned out to be 86.5%; in assay [2], 89.7%.

As for `CC(C)(F)C[C@H](N[C@@H](c1ccc(-c2ccc(S(C)(=O)=O)cc2)cc1)C(F)(F)F)C(=O)NC1(C#N)CC1` [ODANACATIB], the Ratio IC50 in assay [3] is less than 1180; in assay [4], less than 300. In addition, the figures for the IC50 on Cathepsin B, at Cathepsin S and on Cathepsin K were less than 2000 nM, less than 500 nM and 1.7 nM, respectively. For the same compound, the inhibition came to 96.5% in assay [1] and 100% in assay [2].

For `CN1CCN(c2ccc(CN(CC(C)(C)C)c3nccc(C#N)n3)cc2)CC1`, the Ratio IC50 was more than 1620 in assay [3] and more than 810 in assay [4]. For the same compound, the 50% inhibitory concentration (IC50) is more than 100000 nM at Cathepsin B, more than 50000 nM on Cathepsin S and 61.9 nM on Cathepsin K. Further, the inhibition result in assay [5] is “Active”. Moreover, the inhibition in assay [1] worked out at 96.7%; in assay [2], 99.1%.

Consider `CC(C)(C)CN(Cc1ccc2ccccc2n1)c1nccc(C#N)n1`, for which the inhibition in assay [1] was found to be 46.9%; in assay [2] it was 87.4%.

In the case of `Cc1ncc(CN(CC(C)(C)C)c2nccc(C#N)n2)s1`, the inhibition in assay [1] is 52.6%; in assay [2] it was 93.7%.

`CC(C)(C)CN(Cc1ccccc1)c1nccc(C#N)n1`: the inhibition in assay [1] is -1.05%; in assay [2] it was 82.7%.

On to `CC(C)(C)CN(Cc1ccc(Br)cn1)c1nccc(C#N)n1`, for which, in assay [2], the inhibition is 32.2%.

For the compound `CC(C)(C)CN(Cc1ccc2cccnc2c1)c1nccc(C#N)n1`, the inhibition in assay [1] was 48%; in assay [2] it was 93.4%.

Consider `N#Cc1ccnc(N(Cc2ccc(Br)cc2)C2CCCCC2)n1`, for which the inhibition in assay [1] turned out to be 16.8%; in assay [2], 42.8%.

In the case of `CC(C)(C)CN(Cc1cccc(-c2ccccc2)c1)c1nccc(C#N)n1`, the inhibition stood at 33.6% in assay [1] and 45.5% in assay [2].

`N#Cc1ccnc(N(Cc2ccc(Br)cc2)CC2CCCCC2)n1`: the inhibition in assay [1] came to 47.4%; in assay [2] it was 73.2%.

These data come from ChEMBL document CHEMBL5214986, “Discovery of selective covalent cathepsin K inhibitors containing novel 4-cyanopyrimidine warhead based on quantum chemical calculations and binding mode analysis” (Bioorg Med Chem, 2022).
